Activity calls are given as the source filed them. No cut-off for these calls is given here.
How the values were obtained:
Procathepsin L [1] = molecular target: T1, Procathepsin L (Homo sapiens, UniProt P07711); test: Inhibition of human cathepsin L
Target sequence in this assay (P07711 whole entry): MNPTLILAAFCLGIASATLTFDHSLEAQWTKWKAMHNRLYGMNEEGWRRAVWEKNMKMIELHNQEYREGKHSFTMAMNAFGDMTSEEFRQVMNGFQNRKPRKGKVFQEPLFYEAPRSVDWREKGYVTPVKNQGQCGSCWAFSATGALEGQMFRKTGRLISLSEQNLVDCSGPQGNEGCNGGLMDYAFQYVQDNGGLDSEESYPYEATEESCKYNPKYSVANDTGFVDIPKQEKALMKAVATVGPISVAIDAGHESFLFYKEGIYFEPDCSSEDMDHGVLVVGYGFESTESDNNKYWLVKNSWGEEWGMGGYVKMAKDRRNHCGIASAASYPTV

Cathepsin S [2] = molecular target: T2, Cathepsin S (Homo sapiens, UniProt P25774); test: Inhibition of human cathepsin S
Target sequence in this assay (P25774 whole entry): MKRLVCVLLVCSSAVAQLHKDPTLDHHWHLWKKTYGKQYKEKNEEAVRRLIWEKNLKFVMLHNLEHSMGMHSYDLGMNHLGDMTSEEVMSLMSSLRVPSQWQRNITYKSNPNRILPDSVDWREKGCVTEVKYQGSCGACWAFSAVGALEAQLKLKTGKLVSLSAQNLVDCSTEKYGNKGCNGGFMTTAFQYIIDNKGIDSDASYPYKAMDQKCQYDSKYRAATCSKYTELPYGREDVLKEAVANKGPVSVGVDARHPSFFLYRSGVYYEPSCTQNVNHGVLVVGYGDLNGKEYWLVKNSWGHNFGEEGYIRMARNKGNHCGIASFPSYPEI

Cathepsin B = Cathepsin B (Homo sapiens, UniProt P07858); test: Inhibition of human cathepsin B
Cathepsin K = molecular target: T3, Cathepsin K (Homo sapiens, UniProt P43235); test: Inhibition of human cathepsin K
T3 sequence (P43235 whole entry): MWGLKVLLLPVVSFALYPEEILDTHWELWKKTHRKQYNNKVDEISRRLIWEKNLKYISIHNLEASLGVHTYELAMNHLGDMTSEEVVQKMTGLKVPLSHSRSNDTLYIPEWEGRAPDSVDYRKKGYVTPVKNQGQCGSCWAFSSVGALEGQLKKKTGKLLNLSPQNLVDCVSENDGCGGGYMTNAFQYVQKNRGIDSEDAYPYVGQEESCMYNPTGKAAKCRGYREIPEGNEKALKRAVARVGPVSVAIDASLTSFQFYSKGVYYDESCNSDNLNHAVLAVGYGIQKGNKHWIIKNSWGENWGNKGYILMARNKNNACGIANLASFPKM

BXPC-3 [3] = test: Antiproliferative activity against human BxPC-3 cells assessed as reduction of cell viability at <25 uM by MTT assay; format: functional
PANC-1 [4] = test: Antiproliferative activity against human PANC-1 cells assessed as reduction of cell viability at <25 uM by MTT assay; format: functional
Procathepsin L [5] = molecular target: T1, Procathepsin L; test: Inhibition of cathepsin L activity in human BXPC-3 cells at 6.25 to 25 uM incubated for 48 hrs by fluorescence-based assay; format: cell-based; settings: dose 6.25-25 µM
Target sequence in this assay (P07711 114-333 limits assumed): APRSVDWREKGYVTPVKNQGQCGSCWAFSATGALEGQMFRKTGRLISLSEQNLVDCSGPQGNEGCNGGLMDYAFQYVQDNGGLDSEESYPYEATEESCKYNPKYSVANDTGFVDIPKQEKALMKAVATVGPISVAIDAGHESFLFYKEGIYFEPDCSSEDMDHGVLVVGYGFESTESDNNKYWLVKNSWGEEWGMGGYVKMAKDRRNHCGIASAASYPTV

Procathepsin L [6] = molecular target: T1, Procathepsin L; test: Inhibition of cathepsin L activity in human PANC-1 cells at 6.25 to 25 uM incubated for 48 hrs by fluorescence-based assay; format: cell-based; settings: dose 6.25-25 µM
Target sequence in this assay (P07711 114-333 limits assumed): as above

Cathepsin S [7] = molecular target: T2, Cathepsin S; test: Inhibition of cathepsin S activity in human BXPC-3 cells at 6.25 to 25 uM incubated for 48 hrs by fluorescence-based assay; format: cell-based; settings: dose 6.25-25 µM
Target sequence in this assay (P25774 115-331 limits assumed): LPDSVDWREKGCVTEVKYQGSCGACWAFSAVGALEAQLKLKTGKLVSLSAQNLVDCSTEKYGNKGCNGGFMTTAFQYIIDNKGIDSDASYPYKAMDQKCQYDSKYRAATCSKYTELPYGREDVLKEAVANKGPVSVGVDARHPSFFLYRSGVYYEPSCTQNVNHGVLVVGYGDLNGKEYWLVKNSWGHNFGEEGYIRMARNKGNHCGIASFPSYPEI

Cathepsin S [8] = molecular target: T2, Cathepsin S; test: Inhibition of cathepsin S activity in human PANC-1 cells at 6.25 to 25 uM incubated for 48 hrs by fluorescence-based assay; format: cell-based; settings: dose 6.25-25 µM
Target sequence in this assay (P25774 115-331 limits assumed): as above

BXPC-3 [9] = test: Antiproliferative activity against human BxPC-3 cells assessed as effect on cathepsin L mRNA expression level at 6.25 to 25 uM incubated for 48 hrs by RT-PCR analysis; format: functional, cell-based; settings: dose 6.25-25 µM
PANC-1 [10] = test: Antiproliferative activity against human PANC-1 cells assessed as effect on cathepsin L mRNA expression level at 6.25 to 25 uM incubated for 48 hrs by RT-PCR analysis; format: functional, cell-based; settings: dose 6.25-25 µM
BXPC-3 [11] = test: Antimetastatic activity in human BXPC-3 cells assessed as reduction in cell migration at 6.25 to 25 uM incubated for 48 hrs by wound healing assay; format: functional, cell-based; settings: dose 6.25-25 µM
PANC-1 [12] = test: Antimetastatic activity in human PANC-1 cells assessed as reduction in cell migration at 6.25 to 25 uM incubated for 48 hrs by wound healing assay; format: functional, cell-based; settings: dose 6.25-25 µM
BXPC-3 [13] = test: Anti-invasive activity in human BXPC-3 cells assessed as reduction in cell invasion at 6.25 to 25 uM incubated for 24 hrs by crystal violet staining based transwell migration assay; format: functional; settings: dose 6.25-25 µM
PANC-1 [14] = test: Anti-invasive activity in human PANC-1 cells assessed as reduction in cell invasion at 6.25 to 25 uM incubated for 24 hrs by crystal violet staining based transwell migration assay; format: functional; settings: dose 6.25-25 µM

SMILES	IC50 (Procathepsin L [1]) [µM]	IC50 (Cathepsin S [2]) [µM]	IC50 (Cathepsin B) [µM]	IC50 (Cathepsin K) [µM]	also measured
COc1cccc(/C=C/C(=O)NC[C@@H](Cc2ccccc2)NS(=O)(=O)c2ccc(Br)cc2)c1	23.9	41	> 100	> 100	–
COc1ccc(/C=C/C(=O)NC[C@@H](Cc2ccccc2)NS(=O)(=O)c2ccc(Br)cc2)cc1OC	> 100	> 100	> 100	> 100	–
COc1cccc(/C=C/C(=O)NC[C@H](Cc2ccccc2)NS(=O)(=O)c2ccc(C(F)(F)F)cc2)c1	> 100	> 100	> 100	> 100	–
N#Cc1ccccc1N1CCN(C[C@H](O)COC[C@H](Cc2ccccc2)NS(=O)(=O)c2ccc(C(F)(F)F)cc2)CC1	41.1	30.7	> 100	> 100	–
COc1ccc(/C=C/C(=O)NC[C@H](Cc2ccccc2)NS(=O)(=O)c2ccc(Br)cc2)cc1OC	> 100	> 100	> 100	> 100	–
N#Cc1ccccc1N1CCN(C[C@@H](O)COC[C@@H](Cc2ccccc2)NC(=O)c2ccncc2)CC1	29.8	48.9	> 100	> 100	–
COc1cccc(/C=C/C(=O)NC[C@H](Cc2ccccc2)NS(=O)(=O)c2ccc(Br)cc2)c1	> 100	> 100	> 100	> 100	–
N#Cc1ccccc1N1CCN(C[C@@H](O)COC[C@H](Cc2ccccc2)NC(=O)C2CCN(C(=O)OCc3ccccc3)CC2)CC1	19.5	22.7	> 100	> 100	–
N#Cc1ccccc1N1CCN(C[C@H](O)COC[C@@H](Cc2ccccc2)NC(=O)c2ccncc2)CC1	46.2	23.1	> 100	> 100	–
N#Cc1ccccc1N1CCN(C[C@@H](O)COC[C@@H](Cc2ccccc2)NC(=O)C2CCN(C(=O)OCc3ccccc3)CC2)CC1	> 100	> 100	> 100	> 100	–
N#Cc1ccccc1N1CCN(C[C@@H](O)COC[C@H](Cc2ccccc2)NS(=O)(=O)c2ccc(C(F)(F)F)cc2)CC1	45.9	29.2	> 100	> 100	–
N#Cc1ccccc1N1CCN(C[C@H](O)COC[C@@H](Cc2ccccc2)NC(=O)C2CCN(C(=O)OCc3ccccc3)CC2)CC1	> 100	> 100	> 100	> 100	–
COc1ccc(/C=C/C(=O)NC[C@H](Cc2ccccc2)NS(=O)(=O)c2ccc(C(F)(F)F)cc2)cc1OC	> 100	> 100	> 100	> 100	–
N#Cc1ccccc1N1CCN(C[C@H](O)COC[C@@H](Cc2ccccc2)NS(=O)(=O)c2ccc(C(F)(F)F)cc2)CC1	40.7	40.4	> 100	> 100	–
COc1cccc(/C=C/C(=O)NC[C@@H](Cc2ccccc2)NS(=O)(=O)c2ccc(C(F)(F)F)cc2)c1	51.7	64.5	> 100	> 100	–

Stronger by IC50 (Procathepsin L [1]), values ahead:

IC50 (Procathepsin L [1]) [µM]	IC50 (Cathepsin S [2]) [µM]	IC50 (Cathepsin B) [µM]	IC50 (Cathepsin K) [µM]	SMILES	also measured
12.3	21.2	> 100	> 100	COc1ccc(/C=C/C(=O)NC[C@@H](Cc2ccccc2)NS(=O)(=O)c2ccc(C(F)(F)F)cc2)cc1OC	–
9.37	16.1	> 100	> 100	N#Cc1ccccc1N1CCN(C[C@H](O)COC[C@H](Cc2ccccc2)NC(=O)c2ccncc2)CC1	–
5.47	5.46	> 100	> 100	N#Cc1ccccc1N1CCN(C[C@@H](O)COC[C@H](Cc2ccccc2)NS(=O)(=O)c2ccc(Br)cc2)CC1	–
14.5	11.1	> 100	> 100	N#Cc1ccccc1N1CCN(C[C@H](O)COC[C@H](Cc2ccccc2)NC(=O)C2CCN(C(=O)OCc3ccccc3)CC2)CC1	–
7.5	4.38	> 100	> 100	N#Cc1ccccc1N1CCN(C[C@H](O)COC[C@@H](Cc2ccccc2)NS(=O)(=O)c2ccc(Br)cc2)CC1	–
4.1	1.79	> 100	> 100	N#Cc1ccccc1N1CCN(C[C@@H](O)COC[C@@H](Cc2ccccc2)NS(=O)(=O)c2ccc(Br)cc2)CC1	Activity (BXPC-3 [3]): 100%; Activity (PANC-1 [4]): 100%; inhibition (Procathepsin L [5]): Dose-Dependent Effect; inhibition (Procathepsin L [6]): Dose-Dependent Effect; inhibition (Cathepsin S [7]): Dose-Dependent Effect; inhibition (Cathepsin S [8]): Dose-Dependent Effect; Activity (BXPC-3 [9]): inactive; Activity (PANC-1 [10]): inactive; Activity (BXPC-3 [11]): Dose-Dependent Effect; Activity (PANC-1 [12]): Dose-Dependent Effect; Activity (BXPC-3 [13]): Dose-Dependent Effect; Activity (PANC-1 [14]): Dose-Dependent Effect
18.6	28.8	> 100	> 100	N#Cc1ccccc1N1CCN(C[C@@H](O)COC[C@H](Cc2ccccc2)NC(=O)c2ccncc2)CC1	–
6.03	5.02	> 100	> 100	O=C(OC[C@@H](Cc1ccccc1)NS(=O)(=O)c1ccc(Br)cc1)[C@@H](Cc1ccccc1)NS(=O)(=O)c1ccccc1	–
8.53	7.72	> 100	> 100	N#Cc1ccccc1N1CCN(C[C@H](O)COC[C@H](Cc2ccccc2)NS(=O)(=O)c2ccc(Br)cc2)CC1	–
10.5	22.3	> 100	> 100	N#Cc1ccccc1N1CCN(C[C@@H](O)COC[C@@H](Cc2ccccc2)NS(=O)(=O)c2ccc(C(F)(F)F)cc2)CC1	–
